Reference: US20100292214A1, “Compounds with Antiparasitic Activity, Applications thereof to the Treatment of Infectious Diseases Caused by Apicomplexans” (commissariat a l'Energie Atomique, priority 2007, published 2010)
Structures can show the parent of a compound that is named as a salt.

Test system: asynchronous 3D7 chloroquine-sensitive P. falciparum infected red blood cells
Experiment: Labeled hypoxanthine incorporation assay (in vitro anti-malarial activity)
Format: cell-based
Details: Plasmodium falciparum, 3D7, Erythrocyte, 3D7 chloroquine-sensitive strain, infected RBC, 48 h contact, [3H]-hypoxanthine incorporation; two independent experiments in duplicates; read-out: IC50 assessed on Plasmodium Falciparum

Structure (SMILES) | IC50
C[C@@H](COC(=O)N1CCC(N(c2ccccc2)S(=O)(=O)c2ccc(-c3ccccc3)cc2)CC1)N(Cc1ccccc1)Cc1ccccc1 [Compound 170, (S)-2-(dibenzylamino)propyl 4-(N-phenyl-biphenyl-4-sulfonamido)piperidine-1-carboxylate] | 2200 nM
C[C@@H](COC(=O)N1CCC(N(c2ccccc2)S(=O)(=O)c2ccc3ccccc3c2)CC1)N(Cc1ccccc1)Cc1ccccc1 [Compound 171, (S)-2-(dibenzylamino)propyl 4-(N-phenyl-naphthalen-2-ylsulfonamido)piperidine-1-carboxylate] | 4430 nM
C[C@@H](COC(=O)N1CCC(Nc2ccccc2Sc2ccc(Cl)cc2)CC1)N(Cc1ccccc1)Cc1ccccc1 [Compound 173, (S)-2-(dibenzylamino)propyl 4-(2-(4-chlorophenylthio)phenylamino)piperidine-1-carboxylate] | 2580 nM
Cc1cccc(C)c1NC1CCN(C(=O)OC[C@H](Cc2ccccc2)N(Cc2ccccc2)Cc2ccccc2)CC1 [Compound 174, (S)-2-(dibenzylamino)-3-phenylpropyl 4-(2,6-dimethylphenylamino)piperidine-1-carboxylate] | 913 nM
CCc1cccc(CC)c1NC1CCN(C(=O)OC[C@H](Cc2ccccc2)N(Cc2ccccc2)Cc2ccccc2)CC1 [Compound 175, (S)-2-(dibenzylamino)-3-phenylpropyl 4-(2,6-diethylphenylamino)piperidine-1-carboxylate] | 2600 nM
CSc1ccccc1NC1CCN(C(=O)OC[C@H](Cc2ccccc2)N(Cc2ccccc2)Cc2ccccc2)CC1 [Compound 176, (S)-2-(dibenzylamino)-3-phenylpropyl 4-(2-(methylthio)phenylamino)piperidine-1-carboxylate] | 2650 nM

Test system: Toxoplasma gondii RH-β1 strain
Experiment: microbe, parasite or virus in culture
Format: cell-based
Details: Toxoplasma gondii, read-out: IC50 assessed on Toxoplama Gondii

Structure (SMILES) | IC50
CN(CCOC(=O)N1CCC(n2c(=O)[nH]c3ccccc32)CC1)Cc1ccccc1 [Compound 27, 2-(N-benzyl-N-methylamino)ethyl 4-(1,2-dihydro-2-oxobenzo[d]imidazol-3-yl)piperidine-1-carboxylate] | 2000 nM
O=C(OCCOCc1ccccc1)N1CCC(n2c(=O)[nH]c3ccccc32)CC1 [Compound 31, 2-(benzyloxy)ethyl 4-(1,2-dihydro-2-oxobenzo[d]imidazol-3-yl)piperidine-1-carboxylate] | 500 nM
O=C(OC1CCCN(Cc2ccccc2)C1)N1CCC(n2c(=O)[nH]c3ccccc32)CC1 (stereo not shown) [Compound 33, 1-benzylpiperidin-3-yl 4-(1,2-dihydro-2-oxobenzo[d]imidazol-3-yl)piperidine-1-carboxylate] | 450 nM
CC(C)N(CCOC(=O)N1CCC(n2c(=O)[nH]c3ccccc32)CC1)C(C)C [Compound 34, 2-(diisopropylamino)ethyl 4-(1,2-dihydro-2-oxobenzo[d]imidazol-3-yl)piperidine-1-carboxylate] | 27000 nM
CN(C)CCOC(=O)N1CCC(n2c(=O)[nH]c3ccccc32)CC1 [Compound 35, 2-(dimethylamino)ethyl 4-(1,2-dihydro-2-oxobenzo[d]imidazol-3-yl)piperidine-1-carboxylate] | 4000 nM
CCN(CC)CCOC(=O)N1CCC(n2c(=O)[nH]c3ccccc32)CC1 [Compound 39, 2-(diethylamino)ethyl 4-(1,2-dihydro-2-oxobenzo[d]imidazol-3-yl)piperidine-1-carboxylate] | 12000 nM
C[C@@H](COC(=O)N1CCC(n2c(=O)n(C(=O)C(C)(C)C)c3ccccc32)CC1)N(Cc1ccccc1)Cc1ccccc1 [Compound 66, (S)-2-(dibenzylamino)propyl 4-(1,2-dihydro-2-oxo-1-(pivaloyl)benzo[d]imidazol-3-yl)piperidine-1-carboxylate] | 2800 nM
C[C@@H](COC(=O)N1CCC(n2c(N)nc3ccccc32)CC1)N(Cc1ccccc1)Cc1ccccc1 [Compound 177, (S)-2-(dibenzylamino)propyl 4-(2-amino-1H-benzo[d]imidazol-1-yl)piperidine-1-carboxylate] | 3800 nM
O=C(Oc1ccc(N(Cc2ccccc2)Cc2ccccc2)cc1)N1CCC(n2c(=O)[nH]c3ccccc32)CC1 [Compound 178, 4-(dibenzylamino)phenyl 4-(1,2-dihydro-2-oxobenzo[d]imidazol-3-yl)piperidine-1-carboxylate] | 1300 nM
C[C@@H](COC(=O)N1CCC(c2cccc3[nH]c(=O)[nH]c23)CC1)N(Cc1ccccc1)Cc1ccccc1 [Compound 179, (S)-2-(dibenzylamino)propyl 4-(2-oxo-2,3-dihydro-1H-benzo[d]imidazol-4-yl)piperidine-1-carboxylate] | 3250 nM
O=C(OCCCCCCN(Cc1ccccc1)Cc1ccccc1)N1CCC(n2c(=O)[nH]c3ccccc32)CC1 [Compound 180, 6-(dibenzylamino)hexyl 4-(1,2-dihydro-2-oxobenzo[d]imidazol-3-yl)piperidine-1-carboxylate] | 2000 nM
O=C(OCc1ccccc1)N1CCC(n2c(=O)[nH]c3ccccc32)CC1 [Compound 181, Benzyl 4-(1,2-dihydro-2-oxobenzo[d]imidazol-3-yl)piperidine-1-carboxylate] | 300 nM
O=C(OCC1CCCCN1Cc1ccccc1)N1CCC(n2c(=O)[nH]c3ccccc32)CC1 (stereo not shown) [Compound 182, (1-benzylpiperidin-2-yl)methyl 4-(1,2-dihydro-2-oxobenzo[d]imidazol-3-yl)piperidine-1-carboxylate] | 5000 nM
O=C(OC[C@H](Cc1ccccc1)N(Cc1ccccc1)Cc1ccccc1)N1CCC(N(c2ccccc2)S(=O)(=O)c2ccc(C(F)(F)F)cc2)CC1 [Compound 183, (S)-2-(dibenzylamino)-3-phenylpropyl 4-(N-phenyl-4-(trifluoromethyl)phenylsulfonamido)piperidine-1-carboxylate] | 3100 nM
C[C@@H](COC(=O)N1CCC(n2c(=O)[nH]c3ccccc32)CC1)N(Cc1ccccc1)Cc1ccc(F)cc1 [Compound 184, (S)-2-(benzyl(4-fluorobenzyl)amino)propyl 4-(2-oxo-2,3-dihydro-1H-benzo[d]imidazol-1-yl)piperidine-1-carboxylate hydrochloride] | 3300 nM
CC(C)(C)OC(=O)N(CCOC(=O)N1CCC(n2c(=O)[nH]c3ccccc32)CC1)Cc1ccccc1 [Compound 185, 2-(benzyl(tert-butoxycarbonyl)amino)ethyl 4-(2-oxo-2,3-dihydro-1H-benzo[d]imidazol-1-yl)piperidine-1-carboxylate] | 2000 nM
Cn1c(CN(CCCOC(=O)N2CCC(n3c(=O)[nH]c4ccccc43)CC2)Cc2ccccc2)cc2ccccc21 [Compound 186, 3-(benzyl((1-methyl-1H-indol-2-yl)methyl)amino)propyl 4-(2-oxo-2,3-dihydro-1H-benzo[d]imidazol-1-yl)piperidine-1-carboxylate hydrochloride] | 4800 nM
COC(=O)c1ccc(CN(CCOC(=O)N2CCC(n3c(=O)[nH]c4ccccc43)CC2)Cc2ccccc2)cc1 [Compound 187, 2-(benzyl(4-(methoxycarbonyl)benzyl)amino)ethyl 4-(2-oxo-2,3-dihydro-1H-benzo[d]imidazol-1-yl)piperidine-1-carboxylate] | 2200 nM
O=C(OCCCN(Cc1ccccc1)Cc1cccc(OCc2ccccc2)c1)N1CCC(n2c(=O)[nH]c3ccccc32)CC1 [Compound 188, 3-(benzyl(3-(benzyloxy)benzyl)amino)propyl 4-(2-oxo-2,3-dihydro-1H-benzo[d]imidazol-1-yl)piperidine-1-carboxylate] | 3000 nM
